Reference: patent US12403174B2, “Immunomodulators” (Bristol-Myers Squibb Company, priority 2020, dated 2025)
*1 amine or outer side, *2 acyl side, *3 side chain or, on linkers, in order; H or OH if unused. Where a SMILES comes first, the peptide text is derived from it. Bridges are numbered along the chain shown (N, C = ends). [ ]: non-standard residue; d: D form. The star is where a group is joined. Trp(1-CH2COOH) = N[C@@H](Cc1cn(CC(=O)O)c2ccccc12)C(=O)O; X6 = CCOC(=O)Cn1cc(C[C@H](N[*:1])C(=O)[*:2])c2ccccc21; X3 = CCOC(=O)c1ccc(Nc2c(*)c(=O)c2=O)cc1; X8 = O=C(O)c1ccc(Nc2c(*)c(=O)c2=O)cc1; X1 = O=c1c(Nc2c(Cl)cccc2Cl)c(*)c1=O; Hyp = O=C(O)[C@@H]1C[C@@H](O)CN1; NMeNle = CCCC[C@H](NC)C(=O)O; X2 = CC(C)Oc1c(*)c(=O)c1=O; X5 = CN(C)c1c(*)c(=O)c1=O; NMeA = CN[C@@H](C)C(=O)O; Orn = NCCC[C@H](N)C(=O)O; X7 = CCOc1c(*)c(=O)c1=O; Dap = NC[C@H](N)C(=O)O; X4 = COc1c(*)c(=O)c1=O

Each molecule was assayed against T1, PD-1/PD-L1 (Homo sapiens, UniProt Q9NZQ7) (assay: PD-1/PD-L1 Homogenous Time-Resolved Fluorescence (HTRF) binding assay). Details: PD-L1-His 10 nM, PD-1-Ig 20 nM; soluble extracellular domains.
T1 construct: TVMV protease site linker (C); made in house; host or cells: HEK293T cells
T1 sequence (Q9NZQ7 18-239): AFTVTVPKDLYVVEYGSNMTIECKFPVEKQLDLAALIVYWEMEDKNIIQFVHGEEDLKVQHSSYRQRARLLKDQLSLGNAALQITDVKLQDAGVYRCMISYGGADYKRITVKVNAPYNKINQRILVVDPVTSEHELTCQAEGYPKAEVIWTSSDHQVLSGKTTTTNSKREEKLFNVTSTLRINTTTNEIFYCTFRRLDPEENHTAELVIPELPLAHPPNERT
Description: The ability of the compounds of formula (I) to bind to PD-L1 was investigated using a PD-1/PD-L1 Homogenous Time-Resolved Fluorescence (HTRF) binding assay.
The interaction of PD-1 and PD-L1 can be assessed using soluble, purified preparations of the extracellular domains of the two proteins. The PD-1 and PD-L1 protein extracellular domains were expressed as fusion proteins with detection tags, for PD-1, the tag was the Fc portion of Immunoglobulin (PD-1-Ig) and for PD-L1 it was the 6 histidine motif (PD-L1-His). All binding studies were performed in an HTRF assay buffer consisting of dPBS supplemented with 0.1% […] bovine serum albumin and 0.05% (v/v) Tween-20. For the h/PD-L1-His binding assay, inhibitors were pre-incubated with PD-L1-His (10 nM final) for 15 m in 4 μl of assay buffer, followed by addition of PD-1-Ig (20 nM final) in 1 μl of assay buffer and further incubation for 15 m. HTRF detection was achieved using europium crypate-labeled anti-Ig (1 nM final) and allophycocyanin (APC) labeled anti-His (20 nM final). Antibodies were diluted in HTRF detection buffer and 5 μl was dispensed on top of the binding reaction. The reaction mixture was allowed to equilibrate for 30 minutes and the resulting signal (665 nm/620 nm ratio) was obtained using an EnVision fluorometer. Additional binding assays were established between the human proteins PD-1-Ig/PD-L2-His (20 & 5 nM, respectively) and CD80-His/PD-L1-Ig (100 & 10 nM, respectively).
Recombinant Proteins: Human PD-1 (25-167) with a C-terminal human Fc domain of immunoglobulin G (Ig) epitope tag [hPD-1 (25-167)-3S-IG] and human PD-L1 (18-239) with a C-terminal His epitope tag [hPD-L1(18-239)-TVMV-His] were expressed in HEK293T cells and purified sequentially by ProteinA affinity chromatography and size exclusion chromatography. Human PD-L2-His and CD80-His was obtained through commercial sources.
Table 1 lists the IC50 values for representative examples of this disclosure measured in the PD-1/PD-L1 Homogenous Time-Resolved Fluorescence (HTRF) binding assay.

Question: How did the IC50 turn out when `CCCC[C@H]1C(=O)N(C)[C@@H](CCCC)C(=O)N[C@@H](CC(C)C)C(=O)N[C@H](C(=O)NCC(N)=O)CSCC(=O)N[C@@H](Cc2ccc(O)cc2)C(=O)N(C)[C@@H](C)C(=O)N[C@@H](CC(N)=O)C(=O)N2CCC[C@H]2C(=O)N[C@@H](CNc2c(OC)c(=O)c2=O)C(=O)N[C@@H](CC(C)C)C(=O)N2C[C@H](O)C[C@H]2C(=O)N[C@@H](Cc2c[nH]c3ccccc23)C(=O)N[C@@H](CCCNc2c(OC)c(=O)c2=O)C(=O)N[C@@H](Cc2cn(CC(=O)O)c3ccccc23)C(=O)N1C` [Compound 1001] ({CH2CO}-Y[NMeA]NP[Dap](X4)L[Hyp]W[Orn](X4)[Trp(1-CH2COOH)][NMeNle][NMeNle]LCG-NH2; thioether N-14) was run?
Answer: Its IC50 is 4.2 nM.

Question: Which IC50 does the source give for `CCCC[C@H]1C(=O)N(C)[C@@H](CCCC)C(=O)N[C@@H](CC(C)C)C(=O)N[C@H](C(=O)NCC(N)=O)CSCC(=O)N[C@@H](Cc2ccc(O)cc2)C(=O)N(C)[C@@H](C)C(=O)N[C@@H](CC(N)=O)C(=O)N2CCC[C@H]2C(=O)N[C@@H](CNc2c(OC)c(=O)c2=O)C(=O)N[C@@H](CC(C)C)C(=O)N2C[C@H](O)C[C@H]2C(=O)N[C@@H](Cc2c[nH]c3ccccc23)C(=O)N[C@@H](CCCN)C(=O)N[C@@H](Cc2cn(CC(=O)O)c3ccccc23)C(=O)N1C` [Compound 1002] ({CH2CO}-Y[NMeA]NP[Dap](X4)L[Hyp]W[Orn][Trp(1-CH2COOH)][NMeNle][NMeNle]LCG-NH2; thioether N-14) here?
Answer: The IC50 was 3.6 nM.

Question: How did the IC50 turn out when `CCCC[C@H]1C(=O)N(C)[C@@H](CCCC)C(=O)N[C@@H](CC(C)C)C(=O)N[C@H](C(=O)NCC(N)=O)CSCC(=O)N[C@@H](Cc2ccc(O)cc2)C(=O)N(C)[C@@H](C)C(=O)N[C@@H](CC(N)=O)C(=O)N2CCC[C@H]2C(=O)N[C@@H](CNc2c(OCC)c(=O)c2=O)C(=O)N[C@@H](CC(C)C)C(=O)N2C[C@H](O)C[C@H]2C(=O)N[C@@H](Cc2c[nH]c3ccccc23)C(=O)N[C@@H](CCCNc2c(OCC)c(=O)c2=O)C(=O)N[C@@H](Cc2cn(CC(=O)OCC)c3ccccc23)C(=O)N1C` [Compound 1003] ({CH2CO}-Y[NMeA]NP[Dap](X7)L[Hyp]W[Orn](X7)[X6][NMeNle][NMeNle]LCG-NH2; thioether N-14) was run?
Answer: Its IC50 is 16 nM.

Question: For `CCCC[C@H]1C(=O)N(C)[C@@H](CCCC)C(=O)N[C@@H](CC(C)C)C(=O)N[C@H](C(=O)NCC(N)=O)CSCC(=O)N[C@@H](Cc2ccc(O)cc2)C(=O)N(C)[C@@H](C)C(=O)N[C@@H](CC(N)=O)C(=O)N2CCC[C@H]2C(=O)N[C@@H](CNc2c(N(C)C)c(=O)c2=O)C(=O)N[C@@H](CC(C)C)C(=O)N2C[C@H](O)C[C@H]2C(=O)N[C@@H](Cc2c[nH]c3ccccc23)C(=O)N[C@@H](CCCNc2c(N(C)C)c(=O)c2=O)C(=O)N[C@@H](Cc2cn(CC(=O)O)c3ccccc23)C(=O)N1C` [Compound 1004] ({CH2CO}-Y[NMeA]NP[Dap](X5)L[Hyp]W[Orn](X5)[Trp(1-CH2COOH)][NMeNle][NMeNle]LCG-NH2; thioether N-14), which IC50 is on record?
Answer: Its IC50 is 4.3 nM.

Question: With `CCCC[C@H]1C(=O)N(C)[C@@H](CCCC)C(=O)N[C@@H](CC(C)C)C(=O)N[C@H](C(=O)NCC(N)=O)CSCC(=O)N[C@@H](Cc2ccc(O)cc2)C(=O)N(C)[C@@H](C)C(=O)N[C@@H](CC(N)=O)C(=O)N2CCC[C@H]2C(=O)N[C@@H](CNc2c(Nc3ccc(C(=O)OCC)cc3)c(=O)c2=O)C(=O)N[C@@H](CC(C)C)C(=O)N2C[C@H](O)C[C@H]2C(=O)N[C@@H](Cc2c[nH]c3ccccc23)C(=O)N[C@@H](CCCNc2c(Nc3ccc(C(=O)OCC)cc3)c(=O)c2=O)C(=O)N[C@@H](Cc2cn(CC(=O)O)c3ccccc23)C(=O)N1C` [Compound 1005] ({CH2CO}-Y[NMeA]NP[Dap](X3)L[Hyp]W[Orn](X3)[Trp(1-CH2COOH)][NMeNle][NMeNle]LCG-NH2; thioether N-14) as the molecule, how does the IC50 read?
Answer: Its IC50 is 1.4 nM.

Question: `CCCC[C@H]1C(=O)N(C)[C@@H](CCCC)C(=O)N[C@@H](CC(C)C)C(=O)N[C@H](C(=O)NCC(N)=O)CSCC(=O)N[C@@H](Cc2ccc(O)cc2)C(=O)N(C)[C@@H](C)C(=O)N[C@@H](CC(N)=O)C(=O)N2CCC[C@H]2C(=O)N[C@@H](CNc2c(Nc3c(Cl)cccc3Cl)c(=O)c2=O)C(=O)N[C@@H](CC(C)C)C(=O)N2C[C@H](O)C[C@H]2C(=O)N[C@@H](Cc2c[nH]c3ccccc23)C(=O)N[C@@H](CCCNc2c(Nc3c(Cl)cccc3Cl)c(=O)c2=O)C(=O)N[C@@H](Cc2cn(CC(=O)O)c3ccccc23)C(=O)N1C` [Compound 1006] ({CH2CO}-Y[NMeA]NP[Dap](X1)L[Hyp]W[Orn](X1)[Trp(1-CH2COOH)][NMeNle][NMeNle]LCG-NH2; thioether N-14) was tested. Which IC50 did it give?
Answer: Its IC50 is 2.8 nM.

Question: Which IC50 does the source give for `CCCC[C@H]1C(=O)N(C)[C@@H](CCCC)C(=O)N[C@@H](CC(C)C)C(=O)N[C@H](C(=O)NCC(N)=O)CSCC(=O)N[C@@H](Cc2ccc(O)cc2)C(=O)N(C)[C@@H](C)C(=O)N[C@@H](CC(N)=O)C(=O)N2CCC[C@H]2C(=O)N[C@@H](CNc2c(OC(C)C)c(=O)c2=O)C(=O)N[C@@H](CC(C)C)C(=O)N2C[C@H](O)C[C@H]2C(=O)N[C@@H](Cc2c[nH]c3ccccc23)C(=O)N[C@@H](CCCNc2c(OC(C)C)c(=O)c2=O)C(=O)N[C@@H](Cc2cn(CC(=O)O)c3ccccc23)C(=O)N1C` [Compound 1007] ({CH2CO}-Y[NMeA]NP[Dap](X2)L[Hyp]W[Orn](X2)[Trp(1-CH2COOH)][NMeNle][NMeNle]LCG-NH2; thioether N-14) here?
Answer: The IC50 was 1.6 nM.

Question: Which IC50 does the source give for `CCCC[C@H]1C(=O)N(C)[C@@H](CCCC)C(=O)N[C@@H](CC(C)C)C(=O)N[C@H](C(=O)NCC(N)=O)CSCC(=O)N[C@@H](Cc2ccc(O)cc2)C(=O)N(C)[C@@H](C)C(=O)N[C@@H](CC(N)=O)C(=O)N2CCC[C@H]2C(=O)N[C@@H](CNc2c(Nc3ccc(C(=O)O)cc3)c(=O)c2=O)C(=O)N[C@@H](CC(C)C)C(=O)N2C[C@H](O)C[C@H]2C(=O)N[C@@H](Cc2c[nH]c3ccccc23)C(=O)N[C@@H](CCCNc2c(Nc3ccc(C(=O)O)cc3)c(=O)c2=O)C(=O)N[C@@H](Cc2cn(CC(=O)O)c3ccccc23)C(=O)N1C` [Compound 1009] ({CH2CO}-Y[NMeA]NP[Dap](X8)L[Hyp]W[Orn](X8)[Trp(1-CH2COOH)][NMeNle][NMeNle]LCG-NH2; thioether N-14) here?
Answer: The IC50 was 2.9 nM.
